The results in this text go back to patent US11999716B2, “WDR5 inhibitors and modulators” (priority 2018, dated 2024).

The structures appear in SMILES notation.

The first assay concerns MV4:11 human cancer cell lines. Nature of the assay: Cellular viability / anti-proliferative activity, CellTiter-Glo, 5 day protocol. Format: cell-based. Conditions: Homo sapiens, MV4-11, 120 h, MV4:11 cells; 5 day incubation; CellTiter-Glo; mean of minimum two replicates; read-out: GI50 on cellular proliferation of MV4:11 human cancer cell lines. The essentials:
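Compounds were tested over 22 two-fold dilutions starting at 30 μM in 0.3% DMSO, with 200 cells per well (7200 cells/mL). Viability was measured by CellTiter-Glo luminescence at day 5.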
Background: Cellular ATP, detected with luciferase, serves as a proxy for viable cell number.
On to `COc1ccnc(CN2CCc3c(cc(Cn4ccn(C(F)F)c4=N)cc3-c3cn(C)nc3C(F)(F)F)C2=O)c1` [Example 61, 7-((3-(Difluoromethyl)-2-imino-2,3-dihydro-1H-imidazol-1-yl)methyl)-2-((4-methoxypyridin-2-yl)methyl)-5-(1-methyl-3-(trifluoromethyl)-1H-pyrazol-4-yl)-3,4-dihydroisoquinolin-1(2H)-one], for which the GI50 was less than 50 nM.
As to `COc1ccnc(CN2CCc3c(cc(Cn4cc5n(c4=N)CCC5)cc3-c3cn(C)nc3C(F)(F)F)C2=O)c1` [Example 62, 7-((3-Imino-6,7-dihydro-3H-pyrrolo[1,2-c]imidazol-2(51/)-yl)methyl)-2-((4-methoxypyridin-2-yl)methyl)-5-(1-methyl-3-(trifluoromethyl)-1H-pyrazol-4-yl)-3,4-dihydroisoquinolin-1(2H)-one], the GI50 is 572 nM.
Consider `CCn1cc(-c2cc(CN3CCN(C)C3=N)cc3c2CCN(Cc2cc(OC)ccn2)C3=O)c(C(F)(F)F)n1` [Example 55, 5-(1-Ethyl-3-(trifluoromethyl)-1H-pyrazol-4-yl)-7-((2-imino-3-methylimidazolidin-1-yl)methyl)-2-((4-methoxypyridin-2-yl)methyl)-3,4-dihydroisoquinolin-1(2H)-one], for which the GI50 was less than 50 nM.
Still for that read-out and setting: as for `Cc1cc(CN2CCc3c(cc(Cn4ccnc4C)cc3-c3cn(C)nc3C(F)(F)F)C2=O)cnc1Cl` [Example 213, 2-((6-Chloro-5-methylpyridin-3-yl)methyl)-7-((2-methyl-1H-imidazol-1-yl)methyl)-5-(1-methyl-3-(trifluoromethyl)-1H-pyrazol-4-yl)-3,4-dihydroisoquinolin-1(2H)-one], the figure is less than 50 nM; as for `CCn1cc(-c2cc(Cn3cnn(C)c3=N)cc3c2CCN(Cc2cc(C)nn2C)C3=O)c(C(F)(F)F)n1` [Example 128, 2-((1,3-Dimethyl-1H-pyrazol-5-yl)methyl)-7-((5-imino-1-methyl-1,5-dihydro-4H-1,2,4-triazol-4-yl)methyl)-5-(1-ethyl-3-(trifluoromethyl)-1H-pyrazol-4-yl)-3,4-dihydroisoquinolin-1(2H)-one], more than 938 nM; as for `Cc1ccc2[nH]ncc2c1-c1cc(CN2CCc3c(cc(Cn4ccnc4C)cc3-c3cn(C)nc3C(F)(F)F)C2=O)cc(OC(F)(F)F)c1` [Example 220, 7-((2-Methyl-1H-imidazol-1-yl)methyl)-2-(3-(5-methyl-1H-indazol-4-yl)-5-(trifluoromethoxy)benzyl)-5-(1-methyl-3-(trifluoromethyl)-1H-pyrazol-4-yl)-3,4-dihydroisoquinolin-1(2H)-one], 1940 nM.
Consider `Cc1cc(CN2CCc3c(cc(Cn4ccn(C)c4=N)cc3-c3ccc(F)cc3C)C2=O)ccc1F` [Example 31, 5-(4-Fluoro-2-methylphenyl)-2-(4-fluoro-3-methylbenzyl)-7-((2-imino-3-methyl-2,3-dihydro-1H-imidazol-1-yl)methyl)-3,4-dihydroisoquinolin-1(2H)-one], for which the GI50 is less than 50 nM.
On the same count and under the same terms, next, `CCc1nccn1Cc1cc2c(c(-c3cn(C)nc3C(F)(F)F)c1)CCN([C@@H](C)c1cc(C)cc(C)n1)C2=O` [Example 164, (S)-2-(1-(4,6-Dimethylpyridin-2-yl)ethyl)-7-((2-ethyl-1H-imidazol-1-yl)methyl)-5-(1-methyl-3-(trifluoromethyl)-1H-pyrazol-4-yl)-3,4-dihydroisoquinolin-1(2H)-one]: 57 nM; `Cc1cnc(CN2CCc3c(cc(Cn4ccnc4C)cc3-c3cn(C)nc3C(F)(F)F)C2=O)o1` [Example 194, 7-((2-Methyl-1H-imidazol-1-yl)methyl)-5-(1-methyl-3-(trifluoromethyl)-1H-pyrazol-4-yl)-2-((5-methyloxazol-2-yl)methyl)-3,4-dihydroisoquinolin-1(2H)-one]: 252 nM.
Same read-out and setting: next, `COc1ccnc(CN2CCc3c(cc(CN4CCN(C)C4=N)cc3-c3cn(C)nc3C(F)(F)F)C2=O)c1` [Example 43, 7-((2-Imino-3-methylimidazolidin-1-yl)methyl)-2-((4-methoxypyridin-2-yl)methyl)-5-(1-methyl-3-(trifluoromethyl)-1H-pyrazol-4-yl)-3,4-dihydroisoquinolin-1(2H)-one]: less than 50 nM.
On the same count and under the same terms, as for `COc1ccnc(CN2Cc3c(cc(Cn4ccn(C)c4=N)cc3-c3ccc(F)cc3C)C2=O)c1` [Example 138, 4-(4-Fluoro-2-methylphenyl)-6-((2-imino-3-methyl-2,3-dihydro-1H-imidazol-1-yl)methyl)-2-((4-methoxypyridin-2-yl)methyl)isoindolin-1-one], the figure is 2280 nM; as for `COc1cc(CN2CCc3c(cc(Cn4cc(C)nc4C)cc3-c3ccc(F)cc3C)C2=O)cc(OC)c1` [Example 18, 2-(3,5-Dimethoxybenzyl)-7-((2,4-dimethyl-1H-imidazol-1-yl)methyl)-5-(4-fluoro-2-methylphenyl)-3,4-dihydroisoquinolin-1(2H)-one], more than 938 nM.
In the case of `Cc1cnc(Cl)c(CN2CCc3c(cc(Cn4ccnc4C)cc3-c3cn(C)nc3C(F)(F)F)C2=O)c1` [Example 223, 2-((2-Chloro-5-methylpyridin-3-yl)methyl)-7-((2-methyl-1H-imidazol-1-yl)methyl)-5-(1-methyl-3-(trifluoromethyl)-1H-pyrazol-4-yl)-3,4-dihydroisoquinolin-1(2H)-one], the GI50 was less than 50 nM.
On the same count and under the same terms, next, `Cc1nccn1Cc1ccc2c(c1)C(=O)N(Cc1cc(Cl)cc(Cl)c1)CC2` [Example 2, 2-(3,5-Dichlorobenzyl)-7-((2-methyl-1H-imidazol-1-yl)methyl)-3,4-dihydroisoquinolin-1(2H)-one]: more than 938 nM.
Consider `Cc1cc(CN2CCc3c(cc(Cn4ccnc4C)cc3-c3cn(C)nc3C(F)(F)F)C2=O)cnc1C` [Example 241, 2-((5,6-Dimethylpyridin-3-yl)methyl)-7-((2-methyl-1H-imidazol-1-yl)methyl)-5-(1-methyl-3-(trifluoromethyl)-1H-pyrazol-4-yl)-3,4-dihydroisoquinolin-1(2H)-one], for which the GI50 is less than 50 nM.
In the case of `COc1cc(CN2CCc3c(cc(Cn4ccn(C)c4=N)cc3-c3ncc(F)cc3C)C2=O)cc(OC)c1` [Example 59, 2-(3,5-Dimethoxybenzyl)-5-(5-fluoro-3-methylpyridin-2-yl)-7-((2-imino-3-methyl-2,3-dihydro-1H-imidazol-1-yl)methyl)-3,4-dihydroisoquinolin-1(2H)-one], the GI50 was 274 nM.
Take `Cc1cc([C@H](C)N2CCc3c(cc(Cn4ccn(C)c4=N)cc3-c3cn(C)nc3C)C2=O)ccc1F` [Example 143, (S)-5-(1,3-Dimethyl-1H-pyrazol-4-yl)-2-(1-(4-fluoro-3-methylphenyl)ethyl)-7-((2-imino-3-methyl-2,3-dihydro-1H-imidazol-1-yl)methyl)-3,4-dihydroisoquinolin-1(2H)-one]: the GI50 was less than 50 nM.
The same measure, in the same setting: as for `COc1cc(CN2CCc3c(cc(Cn4ccn(C)c4=N)cc3-c3ccc(C)nc3C)C2=O)cc(OC)c1` [Example 68, 2-(3,5-Dimethoxybenzyl)-5-(2,6-dimethylpyridin-3-yl)-7-((2-imino-3-methyl-2,3-dihydro-1H-imidazol-1-yl)methyl)-3,4-dihydroisoquinolin-1(2H)-one], the figure is 333 nM; as for `CCn1cc(-c2cc(Cn3ccoc3=N)cc3c2CCN([C@@H](C)c2cc(OC)ccn2)C3=O)c(C(F)(F)F)n1` [Example 91, (S)-5-(1-Ethyl-3-(trifluoromethyl)-1H-pyrazol-4-yl)-7-((2-iminooxazol-3(2H)-yl)methyl)-2-(1-(4-methoxypyridin-2-yl)ethyl)-3,4-dihydroisoquinolin-1(2H)-one], less than 50 nM.
On the same count and under the same terms, next, `Cc1cc(C)nc([C@@H](C)N2CCc3c(cc(Cn4ccnc4C)cc3-c3cn(C)nc3C(F)(F)F)C2=O)c1` [Example 166, (R)-2-(1-(4,6-Dimethylpyridin-2-yl)ethyl)-7-((2-methyl-1H-imidazol-1-yl)methyl)-5-(1-methyl-3-(trifluoromethyl)-1H-pyrazol-4-yl)-3,4-dihydroisoquinolin-1(2H)-one]: 89 nM; `COc1cc(CN2CCc3c(cc(Cn4ccn(C)c4=N)cc3-c3cccnc3C(F)(F)F)C2=O)cc(OC)c1` [Example 35, 2-(3,5-Dimethoxybenzyl)-7-((2-imino-3-methyl-2,3-dihydro-1H-imidazol-1-yl)methyl)-5-(2-(trifluoromethyl)pyridin-3-yl)-3,4-dihydroisoquinolin-1(2H)-one]: 143 nM.
The same measure, in the same setting: next, `CCn1cc(-c2cc(Cn3cnc(C)c3)cc3c2CCN([C@H](c2cc(OC)ccn2)C2CC2)C3=O)c(C(F)(F)F)n1` [Example 244, (S)-2-(cyclopropyl(4-methoxypyridin-2-yl)methyl)-5-(1-ethyl-3-(trifluoromethyl)-1H-pyrazol-4-yl)-7-((4-methyl-1H-imidazol-1-yl)methyl)-3,4-dihydroisoquinolin-1(2H)-one]: 119 nM; `Cn1cc(-c2cc(Cn3ccoc3=N)cc3c2CCN(Cc2cc(C4CC4)nn2C)C3=O)c(C(F)(F)F)n1` [Example 150, 2-((3-Cyclopropyl-1-methyl-1H-pyrazol-5-yl)methyl)-7-((2-iminooxazol-3(2H)-yl)methyl)-5-(1-methyl-3-(trifluoromethyl)-1H-pyrazol-4-yl)-3,4-dihydroisoquinolin-1(2H)-one]: less than 50 nM.
In the case of `Cc1nccn1Cc1cc2c(c(-c3cn(C)nc3C(F)(F)F)c1)CCN(Cc1cccc(Cl)c1)C2=O` [Example 226, 2-(3-Chlorobenzyl)-7-((2-methyl-1H-imidazol-1-yl)methyl)-5-(1-methyl-3-(trifluoromethyl)-1H-pyrazol-4-yl)-3,4-dihydroisoquinolin-1(2H)-one], the GI50 came to 950 nM.

Still in this assay, the particulars now being: Homo sapiens, MV4-11, 120 h, read-out: GI50 on cellular proliferation of MV4:11 human cancer cell lines.
As to `COc1ccnc(CN2CCc3c(cc(Cc4ncc[nH]4)cc3-c3cn(C)nc3C(F)(F)F)C2=O)c1` [Example 132, 7-((1H-Imidazol-2-yl)methyl)-2-((4-methoxypyridin-2-yl)methyl)-5-(1-methyl-3-(trifluoromethyl)-1H-pyrazol-4-yl)-3,4-dihydroisoquinolin-1(2H)-one], the GI50 is less than 50 nM.
